According to publication PMC11062922 (Nature Chemical Biology, 2023):
pIC50: −log10 of the molar value. Like-named read-outs stand apart in the source and are kept apart here.

Tests used:
[1] = target: PKN3 (Homo sapiens, UniProt Q6P5Z2); test: NanoBRET in-cell target engagement in HEK293T cells: PKN3; assay type: cell-based; parameters: full-length PKN3, CSNK2A1 or CSNK2A2 ORF; host or cells: HEK293T;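 further: Full-length PKN3 with C-terminal NanoLuc expressed in HEK293T cells, serial inhibitor dilutions competing against Kinase Tracer K5 at 500 nM, BRET read after 2 h at 37 °C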
PKN3, sequence (Q6P5Z2 whole entry): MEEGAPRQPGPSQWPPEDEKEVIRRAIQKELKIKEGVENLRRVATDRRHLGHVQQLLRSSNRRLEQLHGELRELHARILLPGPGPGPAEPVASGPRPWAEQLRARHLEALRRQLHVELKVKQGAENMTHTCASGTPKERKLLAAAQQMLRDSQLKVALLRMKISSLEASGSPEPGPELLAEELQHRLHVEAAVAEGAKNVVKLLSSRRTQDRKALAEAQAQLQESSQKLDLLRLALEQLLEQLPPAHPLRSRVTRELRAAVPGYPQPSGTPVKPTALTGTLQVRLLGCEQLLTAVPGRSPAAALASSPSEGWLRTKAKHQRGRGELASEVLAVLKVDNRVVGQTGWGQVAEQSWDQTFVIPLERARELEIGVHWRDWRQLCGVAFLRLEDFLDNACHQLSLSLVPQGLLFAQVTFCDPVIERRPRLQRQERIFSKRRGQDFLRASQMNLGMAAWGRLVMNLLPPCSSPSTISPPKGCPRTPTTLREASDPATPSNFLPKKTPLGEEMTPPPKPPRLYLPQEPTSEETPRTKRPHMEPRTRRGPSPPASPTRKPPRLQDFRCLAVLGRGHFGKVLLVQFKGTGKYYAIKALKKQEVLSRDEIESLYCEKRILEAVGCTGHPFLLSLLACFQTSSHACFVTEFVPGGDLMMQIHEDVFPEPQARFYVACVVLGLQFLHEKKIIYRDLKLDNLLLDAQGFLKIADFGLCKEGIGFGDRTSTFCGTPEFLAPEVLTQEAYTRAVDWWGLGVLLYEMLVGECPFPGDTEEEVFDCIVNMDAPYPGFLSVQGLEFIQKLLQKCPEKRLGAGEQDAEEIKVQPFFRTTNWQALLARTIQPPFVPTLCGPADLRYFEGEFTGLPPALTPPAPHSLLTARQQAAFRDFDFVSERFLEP

[2] = target: T1, ACAD11 (Homo sapiens, UniProt Q709F0); test: Kinobeads two-dose competition binding: ACAD11; conditions: sheet CATDS matrix 2; Gene Name ACAD11
T1 construct: endogenous in cells
T1 sequence (Q709F0 1-780): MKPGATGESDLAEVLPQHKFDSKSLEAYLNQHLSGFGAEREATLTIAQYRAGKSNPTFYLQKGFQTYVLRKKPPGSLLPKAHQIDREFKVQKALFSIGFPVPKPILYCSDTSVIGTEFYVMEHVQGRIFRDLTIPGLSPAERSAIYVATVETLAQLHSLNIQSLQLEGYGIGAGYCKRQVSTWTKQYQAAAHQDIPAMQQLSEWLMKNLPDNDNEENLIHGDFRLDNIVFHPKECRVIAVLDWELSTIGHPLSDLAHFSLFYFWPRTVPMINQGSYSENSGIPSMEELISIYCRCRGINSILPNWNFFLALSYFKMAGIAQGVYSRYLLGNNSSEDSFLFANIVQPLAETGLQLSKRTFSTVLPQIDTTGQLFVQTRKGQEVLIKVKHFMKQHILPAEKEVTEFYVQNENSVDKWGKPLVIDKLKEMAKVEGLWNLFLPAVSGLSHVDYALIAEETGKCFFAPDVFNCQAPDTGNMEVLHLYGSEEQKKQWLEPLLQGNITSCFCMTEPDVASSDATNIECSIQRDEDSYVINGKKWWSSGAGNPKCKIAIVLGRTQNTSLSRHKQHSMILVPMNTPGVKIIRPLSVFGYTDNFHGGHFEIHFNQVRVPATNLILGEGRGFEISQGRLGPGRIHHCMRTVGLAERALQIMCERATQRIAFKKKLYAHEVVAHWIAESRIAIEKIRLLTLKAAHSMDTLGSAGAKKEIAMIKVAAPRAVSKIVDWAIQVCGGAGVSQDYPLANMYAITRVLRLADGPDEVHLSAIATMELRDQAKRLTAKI

[3] = target: T2, ABL2 (Homo sapiens, UniProt P42684); test: Kinobeads two-dose competition binding: ABL2; conditions: sheet CATDS matrix 2; Gene Name ABL2
T2 construct: endogenous in cells
T2 sequence (P42684 whole entry): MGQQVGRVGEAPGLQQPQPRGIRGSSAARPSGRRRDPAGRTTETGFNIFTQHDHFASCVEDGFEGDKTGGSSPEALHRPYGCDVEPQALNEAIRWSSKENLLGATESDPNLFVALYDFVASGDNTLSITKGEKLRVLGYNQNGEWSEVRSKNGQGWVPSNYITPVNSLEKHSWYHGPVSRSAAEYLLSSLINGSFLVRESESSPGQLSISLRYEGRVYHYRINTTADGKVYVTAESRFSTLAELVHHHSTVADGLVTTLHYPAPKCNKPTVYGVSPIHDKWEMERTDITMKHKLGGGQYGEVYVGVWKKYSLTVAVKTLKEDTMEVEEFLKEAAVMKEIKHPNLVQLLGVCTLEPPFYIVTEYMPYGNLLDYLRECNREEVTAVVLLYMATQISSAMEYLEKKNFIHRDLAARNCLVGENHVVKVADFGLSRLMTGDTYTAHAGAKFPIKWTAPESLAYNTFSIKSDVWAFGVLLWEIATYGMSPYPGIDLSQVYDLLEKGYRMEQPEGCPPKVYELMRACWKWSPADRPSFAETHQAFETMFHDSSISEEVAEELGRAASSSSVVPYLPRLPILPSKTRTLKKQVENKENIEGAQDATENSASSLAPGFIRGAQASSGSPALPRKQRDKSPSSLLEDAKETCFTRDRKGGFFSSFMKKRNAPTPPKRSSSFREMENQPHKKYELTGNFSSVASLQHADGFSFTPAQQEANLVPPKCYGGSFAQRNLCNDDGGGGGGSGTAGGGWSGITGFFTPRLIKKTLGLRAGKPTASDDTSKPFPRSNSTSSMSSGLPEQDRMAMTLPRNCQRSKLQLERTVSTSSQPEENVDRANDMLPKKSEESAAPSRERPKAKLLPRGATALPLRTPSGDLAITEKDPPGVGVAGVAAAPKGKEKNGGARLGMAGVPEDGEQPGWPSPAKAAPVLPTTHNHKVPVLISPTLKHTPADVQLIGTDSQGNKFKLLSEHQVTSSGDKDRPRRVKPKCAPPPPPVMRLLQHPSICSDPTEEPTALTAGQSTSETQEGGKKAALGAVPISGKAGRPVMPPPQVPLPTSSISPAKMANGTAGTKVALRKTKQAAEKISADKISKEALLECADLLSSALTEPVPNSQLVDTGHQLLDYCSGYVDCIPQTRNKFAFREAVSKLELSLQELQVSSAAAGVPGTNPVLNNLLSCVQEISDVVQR

[4] = target: ABL1 (Homo sapiens, UniProt P00519); test: Kinobeads two-dose competition binding: ABL1; conditions: sheet CATDS matrix 2; Gene Name ABL1
ABL1, sequence (P00519 28-1130 limits assumed): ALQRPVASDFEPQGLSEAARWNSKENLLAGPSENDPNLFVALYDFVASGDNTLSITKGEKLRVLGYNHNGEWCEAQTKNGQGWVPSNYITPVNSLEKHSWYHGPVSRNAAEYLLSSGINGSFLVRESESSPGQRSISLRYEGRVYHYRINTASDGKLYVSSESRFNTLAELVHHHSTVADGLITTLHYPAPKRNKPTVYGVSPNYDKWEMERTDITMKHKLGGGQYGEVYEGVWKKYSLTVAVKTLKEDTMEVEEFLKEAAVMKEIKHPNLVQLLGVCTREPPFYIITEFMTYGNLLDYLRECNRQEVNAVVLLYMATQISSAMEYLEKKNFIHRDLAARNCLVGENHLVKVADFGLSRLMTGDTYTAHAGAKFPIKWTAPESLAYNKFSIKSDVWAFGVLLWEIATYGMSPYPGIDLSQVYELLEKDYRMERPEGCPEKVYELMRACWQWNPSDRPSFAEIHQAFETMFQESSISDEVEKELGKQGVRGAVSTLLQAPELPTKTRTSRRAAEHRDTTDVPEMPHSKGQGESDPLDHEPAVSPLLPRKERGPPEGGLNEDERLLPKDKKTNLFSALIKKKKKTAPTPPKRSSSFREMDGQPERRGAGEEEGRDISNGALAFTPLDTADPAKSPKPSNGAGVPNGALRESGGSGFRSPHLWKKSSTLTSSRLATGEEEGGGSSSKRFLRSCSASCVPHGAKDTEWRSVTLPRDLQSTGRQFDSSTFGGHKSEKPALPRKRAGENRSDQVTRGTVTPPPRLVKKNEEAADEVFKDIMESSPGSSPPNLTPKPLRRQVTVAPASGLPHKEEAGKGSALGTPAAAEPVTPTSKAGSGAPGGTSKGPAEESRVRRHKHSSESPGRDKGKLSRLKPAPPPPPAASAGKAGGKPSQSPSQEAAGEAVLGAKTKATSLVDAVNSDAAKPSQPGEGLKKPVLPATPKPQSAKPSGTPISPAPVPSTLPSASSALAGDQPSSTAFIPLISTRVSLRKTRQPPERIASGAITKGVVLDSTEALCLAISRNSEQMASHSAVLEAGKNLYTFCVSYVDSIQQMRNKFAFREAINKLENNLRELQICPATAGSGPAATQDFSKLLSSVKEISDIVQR

[5] = target: T3, ACOX1 (Homo sapiens, UniProt Q15067); test: Kinobeads two-dose competition binding: ACOX1; conditions: sheet CATDS matrix 2; Gene Name ACOX1;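 further: competition of compounds with immobilized broad-spectrum kinase inhibitor beads in cell lysate at 100 and 1,000 nM, 45 min at 4 °C, bead-bound protein quantified by label-free MS versus DMSO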
T3 construct: endogenous in cells
T3 sequence (Q15067 1-660): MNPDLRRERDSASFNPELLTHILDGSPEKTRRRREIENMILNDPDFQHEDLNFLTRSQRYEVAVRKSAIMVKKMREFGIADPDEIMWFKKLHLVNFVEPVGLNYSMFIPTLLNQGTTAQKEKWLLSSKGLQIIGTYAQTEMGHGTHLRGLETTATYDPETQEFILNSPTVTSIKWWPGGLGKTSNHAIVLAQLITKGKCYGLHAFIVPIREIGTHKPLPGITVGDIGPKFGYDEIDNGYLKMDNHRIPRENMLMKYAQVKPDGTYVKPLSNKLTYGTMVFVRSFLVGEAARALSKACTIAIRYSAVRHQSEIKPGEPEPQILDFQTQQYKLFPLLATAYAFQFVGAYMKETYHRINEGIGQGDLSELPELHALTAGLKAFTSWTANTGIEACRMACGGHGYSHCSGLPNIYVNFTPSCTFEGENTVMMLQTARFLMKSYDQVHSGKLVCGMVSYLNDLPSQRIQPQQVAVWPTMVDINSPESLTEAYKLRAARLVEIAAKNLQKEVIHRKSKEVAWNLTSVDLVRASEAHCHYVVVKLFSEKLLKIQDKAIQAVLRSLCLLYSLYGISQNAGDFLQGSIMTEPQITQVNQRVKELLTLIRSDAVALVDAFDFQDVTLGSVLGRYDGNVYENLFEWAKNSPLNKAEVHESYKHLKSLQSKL

[6] = target: T4, AAK1 (Homo sapiens, UniProt Q2M2I8); test: Kinobeads two-dose competition binding: AAK1; conditions: for CATDS: sheet CATDS matrix 2, Gene Name AAK1; for potency estimated from few doses: read-out: Kinobeads Drugmatrix - all: apparent Kd, AAK1;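 on all read-outs here: kinobeads competition pulldown from cell lysate, compound preincubated 45 min at 4 °C, bead-bound protein measured by label-free mass spectrometry against DMSO vehicle control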
T4 construct: to maximize the representation of endogenous proteins; endogenous in cells
T4 sequence (Q2M2I8 whole entry): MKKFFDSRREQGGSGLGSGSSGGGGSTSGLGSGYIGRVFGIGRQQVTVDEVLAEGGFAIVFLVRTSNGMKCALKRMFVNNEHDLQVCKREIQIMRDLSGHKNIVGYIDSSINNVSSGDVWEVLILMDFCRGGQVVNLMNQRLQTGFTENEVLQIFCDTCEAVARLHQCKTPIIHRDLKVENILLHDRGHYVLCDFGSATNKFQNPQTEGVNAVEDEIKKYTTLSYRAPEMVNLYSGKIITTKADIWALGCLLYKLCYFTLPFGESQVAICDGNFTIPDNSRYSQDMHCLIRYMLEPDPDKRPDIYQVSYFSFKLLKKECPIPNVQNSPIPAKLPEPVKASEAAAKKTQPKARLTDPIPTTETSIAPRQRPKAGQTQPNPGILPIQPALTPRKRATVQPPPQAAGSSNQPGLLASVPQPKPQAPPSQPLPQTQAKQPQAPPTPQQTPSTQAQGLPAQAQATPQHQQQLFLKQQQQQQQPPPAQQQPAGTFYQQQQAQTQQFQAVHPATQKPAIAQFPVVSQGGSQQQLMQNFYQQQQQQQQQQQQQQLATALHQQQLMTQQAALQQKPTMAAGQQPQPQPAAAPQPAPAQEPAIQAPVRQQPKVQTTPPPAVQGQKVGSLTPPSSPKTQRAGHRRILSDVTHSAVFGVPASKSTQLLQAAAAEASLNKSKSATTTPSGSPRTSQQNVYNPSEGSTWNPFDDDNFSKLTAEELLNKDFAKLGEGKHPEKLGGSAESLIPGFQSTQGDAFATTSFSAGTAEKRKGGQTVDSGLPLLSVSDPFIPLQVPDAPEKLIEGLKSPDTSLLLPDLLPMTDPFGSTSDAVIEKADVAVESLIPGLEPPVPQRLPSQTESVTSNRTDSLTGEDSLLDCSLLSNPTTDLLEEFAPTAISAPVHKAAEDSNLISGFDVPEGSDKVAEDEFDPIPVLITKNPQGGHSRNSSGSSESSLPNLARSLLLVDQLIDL

[7] = average of replicates, read-out: Average of IC50 values NanoBRET PKN3
[8] = biological replicate number 1, read-out: Rep 1 IC50 NanoBRET PKN3
[9] = biological replicate number 2, read-out: Rep 2 IC50 NanoBRET PKN3
[10] = biological replicate number 3, read-out: Rep 3 IC50 NanoBRET PKN3
[11] = biological replicate number 4, read-out: Rep 4 IC50 NanoBRET PKN3

CCOc1nccc2c1nc(-c1nonc1N)n2CC [SB-737198]
pIC50 [1, 7]: < 4.30 | pIC50 [1, 8]: < 4.30 | pIC50 [1, 9]: < 4.30 | pIC50 [1, 10]: < 4.30 | pIC50 [1, 11]: < 4.30

CCn1c(-c2nonc2N)nc2c(-c3ccccc3)ncc(OCCCN)c21 [GSK260205A]
pIC50 ([1]; HEK293T cells, in-cell target engagement, read-out: IC50 PKN3 NanoBRET): 7.13 | pIC50 [1, 7]: 7.65 | pIC50 [1, 8]: 7.13 | pIC50 [1, 9]: 8.21 | pIC50 [1, 10]: 8.21 | pIC50 [1, 11]: 8.47

CCn1c(-c2nonc2N)nc2c(C#CCN)ncc(OCCCN)c21 [GSK561866B]
pIC50 [1, 7]: 5.10 | pIC50 [1, 8]: 4.89 | pIC50 [1, 9]: 4.95 | pIC50 [1, 10]: 5.31 | pIC50 [1, 11]: 5.55

Cc1cccc2c(-c3ccncn3)c(-c3ccc(F)cc3)nn12 [GW515532X]
pIC50 [1, 7]: 4.57 | pIC50 [1, 9]: 6.04 | pIC50 [1, 11]: 6.59

CNc1ncc2cc(-c3cc(NC(=O)NCCC(C)(C)C)c(F)cc3C)c(C)nc2n1 [LY3009120, reference compound]
pIC50 [1, 7]: 6.29 | pIC50 [1, 8]: 6.27 | pIC50 [1, 9]: 5.91 | pIC50 [1, 10]: 6.95 | pIC50 [1, 11]: 6.76

COc1cc2ncn(-c3cc(OCCc4ccccc4)c(C(N)=O)s3)c2cc1OC [GSK204925A]
CATDS [2]: 0 | CATDS [3]: 0 | CATDS [4]: 0 | CATDS [5]: 0 | CATDS [6]: 0

c1ccc(-c2cc3ccncc3cc2OC2CCNCC2)cc1 [GSK1122999D]
CATDS [2]: 0 | CATDS [3]: 0 | CATDS [4]: 0 | CATDS [5]: 0 | CATDS [6]: 0

O=c1[nH]cc(-c2ccc(O)cc2)c2sc(-c3ccncc3)cc12 [GSK1033723A]
CATDS [2]: 0 | CATDS [3]: 0 | CATDS [4]: 0 | CATDS [5]: 0 | CATDS [6]: 0

COc1cc(Nc2nccc(N3CCC(NC(=O)c4cccc(C#N)c4)C3)n2)cc(OC)c1OC (stereo not shown) [GSK1379751A]
CATDS [2]: 0 | CATDS [3]: 0 | CATDS [4]: 0 | CATDS [5]: 0 | potency estimated from few doses ([6]; sheet "Kinobeads Drugmatrix - all", unit inferred, same values below 1000 recur in sheet "nanomolar"): 786 nM | CATDS [6]: 0.2095

COc1ccc2nc(-c3cccc(C)n3)nc(Nc3ccncc3)c2c1 [GSK204919_KCGS]
CATDS [2]: 0 | CATDS [3]: 0 | CATDS [4]: 0 | CATDS [5]: 0 | CATDS [6]: 0

NC[C@H](CC1CCCCC1)NC(=O)c1ccc(-c2ccnc3[nH]ccc23)s1 [GSK1581428A]
CATDS [2]: 0 | CATDS [3]: 0 | CATDS [4]: 0 | CATDS [5]: 0 | potency estimated from few doses [6]: 54.5 nM | CATDS [6]: 0.07203

NC[C@H](Cc1ccc(C(F)(F)F)cc1)NC(=O)c1cc(Br)c(-c2ccnc3[nH]ccc23)s1 [GSK1487252A]
CATDS [2]: 0 | CATDS [3]: 0 | CATDS [4]: 0 | CATDS [5]: 0 | CATDS [6]: 0

COc1cc(Nc2cnc(C#N)c(O[C@H](C)CN(C)C)n2)ncc1-c1cnn(C)c1 [CCT244747]
CATDS [2]: 0 | CATDS [3]: 0 | CATDS [4]: 0 | CATDS [5]: 0 | CATDS [6]: 0

O=C(NCCNc1ccnc(Nc2ccc(F)cc2)n1)Nc1ccccc1F [GSK1379880A]
CATDS [2]: 0 | CATDS [3]: 0 | CATDS [4]: 0 | CATDS [5]: 0 | CATDS [6]: 0

c1ccc(Cc2nc3ccc(Nc4ncnc5ccccc45)cc3[nH]2)cc1 [GR269666A_KCGS]
CATDS [2]: 0 | CATDS [3]: 0 | CATDS [4]: 0 | CATDS [5]: 0 | CATDS [6]: 0

COc1cc(Nc2nccc(N3CCC(NS(=O)(=O)c4ccc(NC(C)=O)cc4)CC3)n2)cc(OC)c1OC [GSK1379825A]
CATDS [2]: 0 | CATDS [3]: 0 | CATDS [4]: 0 | CATDS [5]: 0 | CATDS [6]: 0

COc1cc2nc(-c3cc(F)ccc3O)nc(N[C@@H]3CNC[C@H]3C(C)(C)O)c2cc1OC [CCT241533]
CATDS [2]: 0 | CATDS [3]: 0 | CATDS [4]: 0 | CATDS [5]: 0 | CATDS [6]: 0

NCC1CNC(=O)c2cc3ccc(C(=O)Nc4cccnc4)cc3n2C1 (stereo not shown) [BI00614644]
CATDS [2]: 0 | CATDS [3]: 0 | CATDS [4]: 0 | CATDS [5]: 0 | CATDS [6]: 0
